Results from ChEMBL document CHEMBL4130413, “1-Aryl-1H- and 2-aryl-2H-1,2,3-triazole derivatives blockade P2X7 receptor in vitro and inflammatory response in vivo” (Eur J Med Chem, 2017).
Calls of active or inactive are those of the source. The calls are words filed in the database; no cut-off is given here.

Assays:
[1] = biological target: T1, P2X purinoceptor 7 (Mus musculus) (UniProt Q9Z1M0); test: (§1) Antagonist activity at P2X7 receptor in Swiss mouse peritoneal macrophages assessed as inhibition of ATP-induced propidium iodide uptake after 25 mins by flow cytometric analysis
T1 sequence (whole entry): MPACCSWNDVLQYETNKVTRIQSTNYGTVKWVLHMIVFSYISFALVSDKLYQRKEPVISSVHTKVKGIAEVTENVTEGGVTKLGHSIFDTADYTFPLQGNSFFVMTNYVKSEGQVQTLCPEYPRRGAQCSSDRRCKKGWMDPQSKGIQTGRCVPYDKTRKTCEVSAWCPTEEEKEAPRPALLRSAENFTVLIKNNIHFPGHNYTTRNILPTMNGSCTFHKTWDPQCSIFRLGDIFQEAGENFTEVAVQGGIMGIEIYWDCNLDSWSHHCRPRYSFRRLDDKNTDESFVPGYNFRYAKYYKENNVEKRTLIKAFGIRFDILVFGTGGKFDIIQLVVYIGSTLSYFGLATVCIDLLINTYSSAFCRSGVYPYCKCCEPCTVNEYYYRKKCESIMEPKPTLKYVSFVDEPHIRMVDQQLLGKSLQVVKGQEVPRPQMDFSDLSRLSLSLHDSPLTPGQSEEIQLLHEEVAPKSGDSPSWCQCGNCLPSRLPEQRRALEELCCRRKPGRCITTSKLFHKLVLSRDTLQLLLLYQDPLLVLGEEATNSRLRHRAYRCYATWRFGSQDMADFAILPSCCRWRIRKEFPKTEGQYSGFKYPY

[2] = biological target: T2, P2X purinoceptor 7 (Mus musculus, UniProt Q9Z1M0); test: as §1
T2 sequence (Q9Z1M0 whole entry): T1 sequence (whole entry)

[3] = biological target: T2, P2X purinoceptor 7; test: Antagonist activity at P2X7 receptor in Swiss mouse peritoneal macrophages assessed as inhibition of ATP-induced current at holding potential of -60 mV preincubated for 5 mins followed by ATP addition measured after 5 mins by Whole cell patch-clamp analysis
[4] = biological target: T3, P2X purinoceptor 7 (Homo sapiens, UniProt Q99572); test: Antagonist activity at human P2X7 receptor expressed in HEK293 cells assessed as inhibition of ATP-induced ethidium iodide uptake preincubated for 10 mins followed by ATP addition measured after 20 mins by spectrofluorometric analysis; assay type: cell-based
T3 sequence (Q99572 whole entry): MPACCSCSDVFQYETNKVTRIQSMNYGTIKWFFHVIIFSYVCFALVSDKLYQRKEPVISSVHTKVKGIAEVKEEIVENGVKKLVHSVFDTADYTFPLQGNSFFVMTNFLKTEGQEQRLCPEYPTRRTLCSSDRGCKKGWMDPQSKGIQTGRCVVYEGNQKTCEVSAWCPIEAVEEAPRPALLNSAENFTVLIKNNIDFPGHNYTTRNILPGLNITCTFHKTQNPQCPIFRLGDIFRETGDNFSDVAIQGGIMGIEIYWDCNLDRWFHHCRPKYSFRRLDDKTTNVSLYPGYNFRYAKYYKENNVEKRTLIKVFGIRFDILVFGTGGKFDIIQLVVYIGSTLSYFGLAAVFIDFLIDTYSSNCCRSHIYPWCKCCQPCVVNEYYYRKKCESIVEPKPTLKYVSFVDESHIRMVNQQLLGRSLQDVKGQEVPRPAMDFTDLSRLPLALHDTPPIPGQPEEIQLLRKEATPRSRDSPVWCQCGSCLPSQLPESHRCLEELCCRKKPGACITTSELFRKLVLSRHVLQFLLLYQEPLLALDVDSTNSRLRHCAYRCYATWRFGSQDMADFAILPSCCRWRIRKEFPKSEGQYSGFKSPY

[5] = biological target: T2, P2X purinoceptor 7; test: Antagonist activity at P2X7 receptor in Swiss mouse peritoneal macrophages assessed as inhibition of BzATP-induced ethidium iodide uptake after 30 mins by spectrofluorometric analysis
[6] = biological target: T2, P2X purinoceptor 7; test: Antagonist activity at P2X7 receptor in Swiss mouse peritoneal macrophages assessed as inhibition of BzATP-induced current at holding potential of -60 mV preincubated for 5 mins followed by BzATP addition measured after 5 mins by Whole cell patch-clamp analysis
[7] = test system: Peritoneal macrophage; test: Toxicity in Swiss mouse peritoneal macrophages assessed as LDH release at 750 nM after 60 mins relative to 0.05% Triton X-100; assay type: cell-based; details: 1 h, 0.75 µM
[8] = biological target: T4, P2X purinoceptor 7 (Homo sapiens) (UniProt Q99572); test: Antagonist activity at human P2X7 receptor expressed in HEK293 cells assessed as inhibition of ATP-induced ethidium iodide uptake at 750 nM preincubated for 10 mins followed by ATP addition measured after 20 mins by FLIPR assay relative to 1 mM ATP; assay type: cell-based
T4 sequence (whole entry): T3 sequence (Q99572 whole entry)

[9] = biological target: P2X purinoceptor 7 (Mus musculus) (UniProt Q9Z1M0); test: Antagonist activity at P2X7 receptor in Swiss mouse peritoneal macrophages assessed as inhibition of ATP-induced propidium iodide uptake at 750 nM after 30 mins by FLIPR assay relative to 1 mM ATP
[10] = test system: Mus musculus; test: Anti-inflammatory activity in ip dosed Swiss Webster mouse assessed as inhibition of ATP-induced paw edema pretreated for 60 mins followed by ATP administration and measured after 30 mins; assay type: functional
[11] = test system: Mus musculus; test: Anti-inflammatory activity in ip dosed Swiss Webster mouse assessed as inhibition of carrageenan-induced paw edema pretreated for 60 mins followed by carrageenan administration and measured after 30 mins; assay type: functional
[12] = test system: Mus musculus; test: Anti-inflammatory activity in po dosed Swiss Webster mouse assessed as inhibition of ATP-induced paw edema pretreated for 60 mins followed by ATP administration and measured after 30 mins; assay type: functional
[13] = test system: Mus musculus; test: Anti-inflammatory activity in po dosed Swiss Webster mouse assessed as inhibition of carrageenan-induced paw edema pretreated for 60 mins followed by carrageenan administration and measured after 60 mins; assay type: functional
[14] = biological target: T3, P2X purinoceptor 7; test: Antagonist activity at human P2X7 receptor in PMA-differentiated THP-1 macrophages assessed as inhibition of ATP-induced IL-1beta release preincubated for 30 mins followed by ATP addition measured after 30 mins by ELISA
[15] = biological target: T2, P2X purinoceptor 7; test: Antagonist activity at P2X7 receptor in LPS/IFNc-differentiated Swiss mouse peritoneal macrophages assessed as inhibition of ATP-induced IL-1beta release preincubated for 30 mins followed by LPS stimulation for 4 hrs using cells treated with ATP for 30 mins by ELISA
[16] = test system: Peritoneal macrophage; test: Toxicity in Swiss mouse peritoneal macrophages assessed as LDH release at 10 uM after 60 mins relative to 0.05% Triton X-100; assay type: cell-based; details: 1 h
[17] = biological target: T4, P2X purinoceptor 7 (Homo sapiens); test: Antagonist activity at human P2X7 receptor expressed in HEK293 cells assessed as inhibition of ATP-induced ethidium iodide uptake at 10 uM preincubated for 10 mins followed by ATP addition measured after 20 mins by FLIPR assay relative to 1 mM ATP; assay type: cell-based
[18] = Cytotoxicity against Swiss mouse peritoneal macrophages after 24 hrs by LDH-release assay; assay type: cell-based, Peritoneal macrophage
[19] = biological target: T1, P2X purinoceptor 7 (Mus musculus); test: Antagonist activity at mouse P2X7 receptor expressed in HEK293 cells assessed as inhibition of ATP-induced ethidium iodide uptake at 10 uM preincubated for 10 mins followed by ATP addition measured after 20 mins by FLIPR assay relative to 1 mM ATP; assay type: cell-based
[20] = biological target: P2X purinoceptor 7 (Mus musculus) (UniProt Q9Z1M0); test: Antagonist activity at P2X7 receptor in Swiss mouse peritoneal macrophages assessed as inhibition of ATP-induced propidium iodide uptake at 10 uM after 30 mins by FLIPR assay relative to 1 mM ATP
[21] = biological target: T3, P2X purinoceptor 7; test: Antagonist activity at human P2X7 receptor expressed in human 1321N1 cells assessed as reduction in agonist-induced intracellular Ca2+ levels preincubated for 3 mins followed by agonist addition measured up to 2 mins by Fluo-4 dye-based FLIPR assay; assay type: cell-based
[22] = biological target: P2X purinoceptor 7 (Rattus norvegicus, UniProt Q64663); test: Antagonist activity at rat P2X7 receptor expressed in human 1321N1 cells assessed as reduction in agonist-induced intracellular Ca2+ levels preincubated for 3 mins followed by agonist addition measured up to 2 mins by Fluo-4 dye-based FLIPR assay; assay type: cell-based
[23] = biological target: T2, P2X purinoceptor 7; test: Antagonist activity at mouse P2X7 receptor expressed in human 1321N1 cells assessed as reduction in agonist-induced intracellular Ca2+ levels preincubated for 3 mins followed by agonist addition measured up to 2 mins by Fluo-4 dye-based FLIPR assay; assay type: cell-based
[24] = biological target: T3, P2X purinoceptor 7; test: Antagonist activity at human P2X7 receptor expressed in human THP1 cells assessed as reduction in BzATP-induced pore formation by measuring YO-PRO uptake by FLIPR assay; assay type: cell-based
[25] = biological target: T3, P2X purinoceptor 7; test: Antagonist activity at human P2X7 receptor expressed in human THP1 cells assessed as reduction in BzATP-induced IL-1beta levels preincubated for 30 mins followed by BzATP addition measured after 30 mins by ELISA; assay type: cell-based

Chain of P2X purinoceptor 7 (Rattus norvegicus, UniProt Q64663) (Q64663 whole entry): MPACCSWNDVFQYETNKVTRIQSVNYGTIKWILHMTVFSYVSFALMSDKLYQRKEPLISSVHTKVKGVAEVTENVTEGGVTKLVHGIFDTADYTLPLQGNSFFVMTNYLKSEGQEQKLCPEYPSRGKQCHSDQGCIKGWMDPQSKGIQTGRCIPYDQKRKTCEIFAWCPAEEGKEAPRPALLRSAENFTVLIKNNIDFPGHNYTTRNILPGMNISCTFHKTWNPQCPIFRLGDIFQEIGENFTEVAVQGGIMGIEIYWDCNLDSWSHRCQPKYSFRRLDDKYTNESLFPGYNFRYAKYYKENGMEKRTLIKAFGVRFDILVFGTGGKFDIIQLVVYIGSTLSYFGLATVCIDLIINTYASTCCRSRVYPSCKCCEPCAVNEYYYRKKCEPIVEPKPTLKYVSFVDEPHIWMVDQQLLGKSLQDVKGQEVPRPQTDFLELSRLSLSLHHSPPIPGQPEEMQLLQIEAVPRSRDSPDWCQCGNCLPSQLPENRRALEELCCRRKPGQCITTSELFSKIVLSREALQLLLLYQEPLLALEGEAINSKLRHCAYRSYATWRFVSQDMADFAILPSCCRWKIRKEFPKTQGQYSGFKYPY

Compound	inhibition [1]	IC50 [2] [nM]	IC50 [3] [nM]	IC50 [4] [nM]	Activity [16] [%]	inhibition [17] [%]	CC50 at 24 h [18] [nM]	inhibition [19]	inhibition [20] [%]	further results
CCOc1ccc(Nc2ccc(/C(=C3C=C/C(=[N+](/CC)Cc4cccc(S(=O)(=O)[O-])c4)C=C/3C)c3ccc(N(CC)Cc4cccc(S(=O)(=O)[O-])c4)cc3C)cc2)cc1.[Na+] [BRILLIANT BLUE G]	Dose-dependent effect	343	109	552	–	–	–	–	–	IC50 [5]: 432 nM; IC50 [6]: 407 nM; Activity [7]: 13.22%; inhibition [8]: 90.1%; inhibition [9]: 78.9%
COc1ccc(CC(=O)NC(N/C(=N/C#N)Nc2cccc3ncccc23)C(C)(C)C)cc1OC (stereo not given)	–	–	–	86	–	–	–	–	–	IC50 [5]: 63.3 nM; IC50 [6]: 46.9 nM; ID50 [10]: 0.1058 µg/kg; ID50 [11]: 0.1423 µg/kg; ID50 [12]: 0.1097 µg/kg; ID50 [13]: 0.119 µg/kg; IC50 [14]: 82 nM; IC50 [15]: 112 nM
COc1ccc(-n2cc(CO)nn2)cc1	Dose-dependent effect	488	341	932	9.7	94.1	363	Active	86.3	–
Clc1cccc(-n2nnnc2NCc2ccccc2Oc2ccccn2)c1Cl	–	–	–	–	–	–	–	–	–	IC50 [21]: 20 to 150 nM; IC50 [22]: 20 to 150 nM; IC50 [23]: 20 to 150 nM; IC50 [24]: 6.61 nM; IC50 [25]: 37.2 nM
CCCCOCc1cn(-c2cc(Cl)ccc2Cl)nn1	Dose-dependent effect	317	316	621	11.66	90.1	505	–	79.8	–
O=Cc1cn(-c2ccccc2)nn1	Dose-dependent effect	167	103	478	10.51	95.3	3740	Active	84.6	–
O/N=C/c1cnn(-c2ccccc2)n1	Dose-dependent effect	349	457	897	12.66	94.3	250	Active	83	–
OCc1cnn(-c2ccccc2)n1	Dose-dependent effect	96	81	522	9.18	90.2	2360	Active	84.2	–
CCCCCCCCCC(=O)OCc1cn(-c2ccc(Cl)cc2)nn1	Dose-dependent effect	107	103	108	8	78	2840	–	76	–
